Patent US20210275415A1, “AN ANTIMICROBIAL COMPOSITION” (Conopco, Inc., d/b/a UNILEVER, priority 2017, published 2021)
Read-outs that look alike come from different tables or passages of the source.

Key:
Staphylococcus aureus = experiment: ΣFIC assay against Staphylococcus aureus (MIC by alamar blue, checkerboard); type: cell-based, S. aureus (ATCC 12600); details: for MIC: Staphylococcus aureus, 24 h, read-out: Minimum Inhibition Concentration (MIC); for interaction of the combination (synergy/additivity) in words: conclusion from Table 2
Method: Effect of sphingosine with triclosan as well as triclocarban was also tested. A brief description of the method is given below.
Methods: ΣFIC assay against Staphylococcus aureus
They are then incubated at 37° C. overnight (16 hours) with shaking. The overnight culture is diluted using TSB to 5*10^4 cell/ml.
Zinc pyrithione was serially diluted (2-fold) to prepare in a range of 0.5 to 500 ppm in the growth medium. The AML compound was serially diluted (2-fold) to prepare in a range of 16 to 1,000 ppm for sapienic acid, and palmitoleic acid; and 4 to 250 ppm for other AMLs in growth medium. Triclosan was serially diluted (2-fold) to prepare in a range of 0.2 to 200 ppm and triclocarban in a range of 2 to 2000 ppm in growth medium.
(§1) Binary combinations of ZPTO or triclosan/triclocarban and the AML compound were prepared in 96-well plate by mixing 20 μl of zinc pyrithione solution with 20 μl of AML compound. The solution in each well were further mixed with 160 μl of TSB and 20 μl of S. aureus. The final cell density in the testing plate is around 4*10^4 cell/ml, and the final concentration of actives in each well of the 96-well plate were shown below.
Then 20 μl of alamar blue (0.01%) was added into each well, and the plate was incubated at 37° C. for one day to observe the color change. Red color indicates microbial growth and the non-changing blue color indicates no growth.
(§2) The MIC is defined as the absolute lowest concentration of active that provides complete microbial growth inhibition as indicated by the blue color of alamar blue under the tested condition.
The differing behaviors of inhibitory antimicrobials in isolation and mixtures have been widely explored using the concept of the Fractional Concentration (FC) and Fractional Inhibitory Concentration (FIC). The parameter can be defined as follows: […]
(§3) These relationships can be expressed mathematically by summing the fractional MIC values for all the components present in the mixture to give the “fractional inhibition index”. There is no consistent approach in the academic or patent literature in defining precise limiting ΣFIC values that differentiate synergy from additivity or antagonism. In this study, we have adopted a liberal approach defining any binary mixture with ΣFIC<0.9 as showing evidence of synergistic behavior.

Malassezia furfur = experiment: ΣFIC assay against Malassezia furfur (MIC by alamar blue, checkerboard); type: cell-based, M. furfur (CBS 1878); details: M. furfur, Pityrosporum Broth, 32° C., lowest concentration giving complete growth inhibition (alamar blue stays blue), active alone; for MIC: Malassezia furfur, read-out: Minimum Inhibition Concentration (MIC)
Method: Synergistic interaction between ZPTO and the AML compounds was determined using the ΣFIC assay against Malassezia furfur. A brief description of the method is given below.
Method: ΣFIC assay against Malassezia furfur
They are then incubated at 32° C. for 48 hours with shaking. Then, 1 ml of the first broth culture is transferred into 9 ml of fresh PB and incubated at 32° C. for 48 hours with shaking. The final culture should contain 2 to 6×10^6 cells/ml. This is achieved by diluting using PB to 5*10^5 cell/ml.
as §1, with “ZPTO” for “ZPTO or triclosan/triclocarban”, “PB” for “TSB”, “M. furfur.” for “S. aureus.”, “5*10^4” for “4*10^4”
The plate was incubated at 32° C. for one day. Then 20 μl of alamar blue (0.01%) was added into each well with a further incubation for one day to observe the color change. Red color indicates microbial growth and the non-changing blue color indicates no growth.
as §2
The differing behaviour of inhibitory antimicrobials in isolation and mixtures have been widely explored using the concept of the Fractional Concentration (FC) and Fractional Inhibitory Concentration (FIC). The parameter can be defined as follows: […]
as §3

[1] = S. aureus, TSB, 37° C. one day, lowest concentration giving complete growth inhibition (alamar blue stays blue), active alone

With `CCCCCCCCCCCCCCC[C@@H](O)[C@@H](N)CO` [dihydrosphingosine] the “Minimum Inhibition Concentration (MIC)” value (Staphylococcus aureus; [1]) was 6.3 ppm and the “Minimum Inhibition Concentration (MIC)” value (Malassezia furfur) was 1000 ppm.

In the case of `CCCCCC/C=C\CCCCCCCC(=O)O` [palmitoleic acid], the MIC (Malassezia furfur) was 5000 µg/mL.

For `CCCCCCCCCCCCCC[C@@H](O)[C@@H](O)[C@@H](N)CO` [phytosphingosine], the MIC (Malassezia furfur) was 125 µg/mL.

`CCCCCCCCC/C=C\CCCCC(=O)O` [sapienic acid] was tested, and the “Minimum Inhibition Concentration (MIC)” value (Staphylococcus aureus; [1]) was 25 ppm.

Compound `CCCCCCCCCCCCC/C=C/[C@@H](O)[C@@H](N)CO` [sphingosine] has an MIC (Staphylococcus aureus; [1]) of 3.1 µg/mL and an MIC (Malassezia furfur) of 1000 µg/mL.

For `O=C(Nc1ccc(Cl)cc1)Nc1ccc(Cl)c(Cl)c1` [triclocarban], the “interaction of the combination (synergy/additivity) in words” value (Staphylococcus aureus; S. aureus) was “additive but not synergistic effect” and the MIC (Staphylococcus aureus; [1]) was 3.13 µg/mL.

For `Oc1cc(Cl)ccc1Oc1ccc(Cl)cc1Cl` [triclosan], the “interaction of the combination (synergy/additivity) in words” value (Staphylococcus aureus; S. aureus) was “additive but not synergistic effect” and the MIC (Staphylococcus aureus) was 0.16 µg/mL.
